Measured values taken from patent US20210253568A1, “AZAINDOLE DERIVATIVES AS RHO-KINASE INHIBITORS” (CHIESI FARMACEUTICI S.p.A., priority 2018, published 2021).

Columns and labels:
[1] = target: ROCK 1 (Homo sapiens, UniProt Q13464); experiment: In vitro Rho kinase inhibitory activity assay (ADP-Glo), Rho kinase 1; format: biochemical; conditions: Ki by Cheng-Prusoff from IC50; 10 μM ATP, 25° C., expressed as range of activity
Protocol: (§1) The effectiveness of compounds of the present invention to inhibit Rho kinase activity can be determined in a 10 μl assay containing 40 mM Tris pH7.5, 20 mM MgCl2 0.1 mg/mi BSA, 50 μM DTT and 2.5 μM peptide substrate (Myelin Basic Protein) using an ADP-Glo kit (Promega). Compounds were dissolved in DMSO such that the final concentration of DMSO was 1% in the assay. All reactions/incubations are performed at 25° C. Compound (2 ul) and either Rho kinase 1 or 2 (4 μl) were mixed and incubated for 30 mins. Reactions were initiated by addition of ATP (4 μl) such that the final concentration of ATP in the assay was 10 μM. After a 1 hour incubation 10 μl of ADP-Glo Reagent was added and after a further 45 minute incubation 20 ul of Kinase Detection Buffer was added and the mixture incubated for a further 30 minutes. The luminescent signal was measured on a luminometer. […] Compounds were tested in dose-response format and the inhibition of kinase activity was calculated at each concentration of compound. To determine the IC50 (concentration of compound required to inhibit 50% of the enzyme activity) data were fit to a plot of % inhibition vs Log10 compound concentration using a sigmoidal fit with a variable slope and fixing the maximum to 100% and the minimum to 0%. To determine the Ki values the Cheng-Prusoff equation was utilized (Ki=IC50/(1+[S]/Km).

[2] = target: ROCK 2 (Homo sapiens, UniProt O75116); experiment: In vitro Rho kinase inhibitory activity assay (ADP-Glo), Rho kinase 2; format: biochemical; conditions: Ki by Cheng-Prusoff from IC50; 10 μM ATP, 25° C., expressed as range of activity
Chain of ROCK 2 (O75116 whole entry): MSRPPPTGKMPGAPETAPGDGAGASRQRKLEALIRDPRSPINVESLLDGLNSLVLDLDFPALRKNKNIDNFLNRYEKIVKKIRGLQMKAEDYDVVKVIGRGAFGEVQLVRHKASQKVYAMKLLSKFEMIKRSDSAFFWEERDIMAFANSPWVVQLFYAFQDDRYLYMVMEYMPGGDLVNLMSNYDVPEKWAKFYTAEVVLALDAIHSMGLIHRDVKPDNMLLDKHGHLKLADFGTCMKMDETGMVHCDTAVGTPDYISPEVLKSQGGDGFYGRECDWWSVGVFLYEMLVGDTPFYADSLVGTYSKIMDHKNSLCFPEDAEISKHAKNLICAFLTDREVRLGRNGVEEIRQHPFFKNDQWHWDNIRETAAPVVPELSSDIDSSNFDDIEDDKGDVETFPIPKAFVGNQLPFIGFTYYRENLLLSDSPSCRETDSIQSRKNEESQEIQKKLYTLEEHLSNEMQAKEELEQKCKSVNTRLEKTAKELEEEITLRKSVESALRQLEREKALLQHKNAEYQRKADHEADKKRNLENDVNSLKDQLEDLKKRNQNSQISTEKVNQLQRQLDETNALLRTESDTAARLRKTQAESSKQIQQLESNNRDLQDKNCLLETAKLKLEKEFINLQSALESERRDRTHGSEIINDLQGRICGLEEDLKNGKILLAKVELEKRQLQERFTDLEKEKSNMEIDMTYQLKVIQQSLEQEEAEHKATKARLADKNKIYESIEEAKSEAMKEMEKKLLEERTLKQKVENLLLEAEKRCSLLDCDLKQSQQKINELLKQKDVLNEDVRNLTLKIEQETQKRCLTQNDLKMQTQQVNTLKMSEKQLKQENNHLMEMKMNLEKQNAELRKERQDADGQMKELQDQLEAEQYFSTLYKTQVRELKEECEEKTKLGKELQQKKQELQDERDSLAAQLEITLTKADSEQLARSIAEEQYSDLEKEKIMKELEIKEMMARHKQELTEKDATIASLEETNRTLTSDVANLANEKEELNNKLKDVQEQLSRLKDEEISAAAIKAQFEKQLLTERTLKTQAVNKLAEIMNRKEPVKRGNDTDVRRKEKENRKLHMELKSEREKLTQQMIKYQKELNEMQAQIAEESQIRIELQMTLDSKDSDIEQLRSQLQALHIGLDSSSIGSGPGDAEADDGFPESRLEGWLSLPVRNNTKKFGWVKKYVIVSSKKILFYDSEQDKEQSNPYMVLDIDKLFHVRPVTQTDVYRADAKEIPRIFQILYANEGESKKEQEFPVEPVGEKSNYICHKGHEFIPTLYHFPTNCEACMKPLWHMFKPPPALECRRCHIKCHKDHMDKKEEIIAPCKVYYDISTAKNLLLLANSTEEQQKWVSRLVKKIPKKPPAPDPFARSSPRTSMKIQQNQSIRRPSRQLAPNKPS
Protocol: as §1

Chain of ROCK 1 (Q13464 whole entry): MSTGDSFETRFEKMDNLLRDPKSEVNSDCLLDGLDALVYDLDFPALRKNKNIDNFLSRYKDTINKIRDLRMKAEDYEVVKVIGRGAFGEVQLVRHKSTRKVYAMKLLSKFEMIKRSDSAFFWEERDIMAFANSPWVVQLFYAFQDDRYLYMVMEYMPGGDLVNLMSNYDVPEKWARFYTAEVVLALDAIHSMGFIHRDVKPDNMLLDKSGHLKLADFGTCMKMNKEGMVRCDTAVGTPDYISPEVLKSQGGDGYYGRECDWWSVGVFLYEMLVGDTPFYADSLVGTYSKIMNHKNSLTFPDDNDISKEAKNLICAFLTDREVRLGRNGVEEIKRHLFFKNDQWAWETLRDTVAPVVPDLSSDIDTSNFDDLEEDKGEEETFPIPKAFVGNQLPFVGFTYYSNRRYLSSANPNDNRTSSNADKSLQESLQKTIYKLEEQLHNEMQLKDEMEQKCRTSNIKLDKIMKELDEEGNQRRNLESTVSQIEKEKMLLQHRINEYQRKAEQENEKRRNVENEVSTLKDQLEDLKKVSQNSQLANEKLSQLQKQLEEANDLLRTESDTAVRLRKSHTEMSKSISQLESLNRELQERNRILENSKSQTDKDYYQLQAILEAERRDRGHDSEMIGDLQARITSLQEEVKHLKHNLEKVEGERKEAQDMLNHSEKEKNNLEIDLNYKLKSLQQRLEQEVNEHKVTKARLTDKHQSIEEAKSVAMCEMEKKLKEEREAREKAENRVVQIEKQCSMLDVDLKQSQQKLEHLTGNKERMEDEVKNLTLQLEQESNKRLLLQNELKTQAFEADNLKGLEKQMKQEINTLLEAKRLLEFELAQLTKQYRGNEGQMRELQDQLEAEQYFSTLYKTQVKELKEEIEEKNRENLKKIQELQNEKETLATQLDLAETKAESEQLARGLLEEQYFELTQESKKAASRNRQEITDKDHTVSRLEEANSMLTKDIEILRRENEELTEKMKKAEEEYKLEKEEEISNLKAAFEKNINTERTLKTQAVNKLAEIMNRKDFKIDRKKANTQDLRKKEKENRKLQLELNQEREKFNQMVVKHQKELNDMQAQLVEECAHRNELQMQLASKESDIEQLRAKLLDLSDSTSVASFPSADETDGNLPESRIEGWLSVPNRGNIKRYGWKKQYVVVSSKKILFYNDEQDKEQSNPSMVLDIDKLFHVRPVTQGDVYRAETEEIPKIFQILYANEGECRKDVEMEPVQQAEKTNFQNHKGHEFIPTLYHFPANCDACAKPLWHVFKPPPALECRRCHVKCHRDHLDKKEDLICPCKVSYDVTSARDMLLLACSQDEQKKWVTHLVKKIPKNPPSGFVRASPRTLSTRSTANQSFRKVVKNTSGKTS

Row | Ki [1] | Ki [2] | Compound
1 | < 3 nM | < 3 nM | c1nc(NCc2nccs2)cc(-c2c[nH]c3nccc(Oc4ccc5c(c4)CNCC5)c23)n1 [Example 30, 6-(4-((1,2,3,4-tetrahydroisoquinolin-7-yl)oxy)-1H-pyrrolo[2,3-b]pyridin-3-yl)-N-(thiazol-2-ylmethyl)pyrimidin-4-amine]
2 | < 3 nM | < 3 nM | NC(C(=O)Nc1cc(-c2c[nH]c3nccc(Oc4ccc5c(c4)CNCC5)c23)ccn1)c1ccccc1 (stereo not drawn) [Example 45, 2-amino-2-phenyl-N-(4-(4-((1,2,3,4-tetrahydroisoquinolin-7-yl)oxy)-1H-pyrrolo[2,3-b]pyridin-3-yl)pyridin-2-yl)acetamide]
3 | 3 to 30 nM | < 3 nM | O=C(Nc1cc(-c2c[nH]c3nccc(Oc4ccc5c(c4)CNCC5)c23)ncn1)c1ccccc1 [Example 50, N-(6-(4-((1,2,3,4-tetrahydroisoquinolin-7-yl)oxy)-1H-pyrrolo[2,3-b]pyridin-3-yl)pyrimidin-4-yl)benzamide]
4 | 3 to 30 nM | < 3 nM | c1ccc(CNc2cncc(-c3c[nH]c4nccc(Oc5ccc6c(c5)CNCC6)c34)c2)cc1 [Example 51, N-benzyl-5-(4-((1,2,3,4-tetrahydroisoquinolin-7-yl)oxy)-1H-pyrrolo[2,3-b]pyridin-3-yl)pyridin-3-amine]
5 | < 3 nM | < 3 nM | C[C@@H](Nc1cc(-c2c[nH]c3nccc(Oc4ccc5c(c4)CNCC5)c23)ncn1)c1ccccc1 [Example 52, (R)-N-(1-phenylethyl)-6-(4-((1,2,3,4-tetrahydroisoquinolin-7-yl)oxy)-1H-pyrrolo[2,3-b]pyridin-3-yl)pyrimidin-4-amine]
6 | < 3 nM | < 3 nM | c1ccc(CCNc2cc(-c3c[nH]c4nccc(Oc5ccc6c(c5)CNCC6)c34)ncn2)cc1 [Example 53, N-phenethyl-6-(4-((1,2,3,4-tetrahydroisoquinolin-7-yl)oxy)-1H-pyrrolo[2,3-b]pyridin-3-yl)pyrimidin-4-amine]
7 | 3 to 30 nM | < 3 nM | C[C@H](Nc1cc(-c2c[nH]c3nccc(Oc4ccc5c(c4)CNCC5)c23)ncn1)c1ccccc1 [Example 54, (S)-N-(1-phenylethyl)-6-(4-((1,2,3,4-tetrahydroisoquinolin-7-yl)oxy)-1H-pyrrolo[2,3-b]pyridin-3-yl)pyrimidin-4-amine]
8 | < 3 nM | < 3 nM | c1cncc(CCNc2cc(-c3c[nH]c4nccc(Oc5ccc6c(c5)CNCC6)c34)ncn2)c1 [Example 55, N-(2-(pyridin-3-yl)ethyl)-6-(4-((1,2,3,4-tetrahydroisoquinolin-7-yl)oxy)-1H-pyrrolo[2,3-b]pyridin-3-yl)pyrimidin-4-amine]
9 | 3 to 30 nM | < 3 nM | c1ccc(CNc2cc(-c3c[nH]c4ncnc(Oc5ccc6c(c5)CNCC6)c34)ccn2)cc1 [Example 56, N-benzyl-4-(4-((1,2,3,4-tetrahydroisoquinolin-7-yl)oxy)-7H-pyrrolo[2,3-d]pyrimidin-5-yl)pyridin-2-amine]

Continued, compound first:

Row | Compound | Ki [1] | Ki [2]
10 | NCc1ccc(Oc2ccnc3[nH]cc(-c4cc(NCc5ccccc5)ncn4)c23)c(F)c1 [Example 31, 6-(4-(4-(aminomethyl)-2-fluorophenoxy)-1H-pyrrolo[2,3-b]pyridin-3-yl)-N-benzylpyrimidin-4-amine] | < 3 nM | < 3 nM
11 | NCc1ccc(Oc2ccnc3[nH]cc(-c4ccnc(NCc5ccccc5)n4)c23)c(F)c1 [Example 32, 4-(4-(4-(aminomethyl)-2-fluorophenoxy)-1H-pyrrolo[2,3-b]pyridin-3-yl)-N-benzylpyrimidin-2-amine] | 3 to 30 nM | < 3 nM
12 | NCc1ccc(Oc2ccnc3[nH]cc(-c4ccnc(NCc5ccccc5)c4)c23)c(F)c1 [Example 33, 4-(4-(4-(aminomethyl)-2-fluorophenoxy)-1H-pyrrolo[2,3-b]pyridin-3-yl)-N-benzylpyridin-2-amine] | 3 to 30 nM | < 3 nM
13 | NCc1ccc(Oc2ccnc3[nH]cc(-c4cnc(NC(=O)Cc5ccccc5)s4)c23)cc1 [Example 34, N-(5-(4-(4-(aminomethyl)phenoxy)-1H-pyrrolo[2,3-b]pyridin-3-yl)thiazol-2-yl)-2-phenylacetamide] | 3 to 30 nM | < 3 nM
14 | c1cc(-c2c[nH]c3nccc(Oc4ccc5c(c4)CNCC5)c23)cc(NCc2nccs2)n1 [Example 35, 4-(4-((1,2,3,4-tetrahydroisoquinolin-7-yl)oxy)-1H-pyrrolo[2,3-b]pyridin-3-yl)-N-(thiazol-2-ylmethyl)pyridin-2-amine] | < 3 nM | < 3 nM
15 | c1cc(-c2c[nH]c3nccc(Oc4ccc5c(c4)CNCC5)c23)cc(NCC2CC2)n1 [Example 36, N-(cyclopropylmethyl)-4-(4-((1,2,3,4-tetrahydroisoquinolin-7-yl)oxy)-1H-pyrrolo[2,3-b]pyridin-3-yl)pyridin-2-amine] | < 3 nM | < 3 nM
16 | Cc1ccc(CNc2cc(-c3c[nH]c4nccc(Oc5ccc6c(c5)CNCC6)c34)ccn2)nc1 [Example 37, N-((5-methylpyridin-2-yl)methyl)-4-(4-((1,2,3,4-tetrahydroisoquinolin-7-yl)oxy)-1H-pyrrolo[2,3-b]pyridin-3-yl)pyridin-2-amine] | 3 to 30 nM | < 3 nM
17 | c1cc(-c2c[nH]c3nccc(Oc4ccc5c(c4)CNCC5)c23)cc(NCC2CCOCC2)n1 [Example 38, N-((tetrahydro-2H-pyran-4-yl)methyl)-4-(4-((1,2,3,4-tetrahydroisoquinolin-7-yl)oxy)-1H-pyrrolo[2,3-b]pyridin-3-yl)pyridin-2-amine] | < 3 nM | < 3 nM
18 | O=C(Nc1cc(-c2c[nH]c3nccc(Oc4ccc5c(c4)CNCC5)c23)ccn1)C1CC1 [Example 39, N-(4-(4-((1,2,3,4-tetrahydroisoquinolin-7-yl)oxy)--1H-pyrrolo[2,3-b]pyridin3-yl)pyridin-2-yl)cyclopropanecarboxamide] | 3 to 30 nM | < 3 nM
19 | O=C(Nc1cc(-c2c[nH]c3nccc(Oc4ccc5c(c4)CNCC5)c23)ccn1)C1CCCCC1 [Example 40, N-(4-(4-((1,2,3,4-tetrahydroisoquinolin-7-yl)oxy)-1H-pyrrolo[2,3-b]pyridin-3-yl)pyridin-2-yl)cyclohexanecarboxamide] | < 3 nM | < 3 nM
20 | O=C(Nc1cc(-c2c[nH]c3nccc(Oc4ccc5c(c4)CNCC5)c23)ccn1)C1CCOCC1 [Example 41, N-(4-(4-((1,2,3,4-tetrahydroisoquinolin-7-yl)oxy)-1H-pyrrolo[2,3-b]pyridin-3-yl)pyridin-2-yl)tetrahydro-2H-pyran-4-carboxamide] | < 3 nM | < 3 nM
21 | CC(C)OCC(=O)Nc1cc(-c2c[nH]c3nccc(Oc4ccc5c(c4)CNCC5)c23)ccn1 [Example 42, 2-isopropoxy-N-(4-(4-((1,2,3,4-tetrahydroisoquinolin-7-yl)oxy)-1H-pyrrolo[2,3-b]pyridin-3-yl)pyridin-2-yl)acetamide] | < 3 nM | < 3 nM
22 | O=C(CN1CCCCC1)Nc1cc(-c2c[nH]c3nccc(Oc4ccc5c(c4)CNCC5)c23)ccn1 [Example 43, 2-(piperidin-1-yl)-N-(4-(4-((1,2,3,4-tetrahydroisoquinolin-7-yl)oxy)-1H-pyrrolo[2,3-b]pyridin-3-yl)pyridin-2-yl)acetamide] | < 3 nM | < 3 nM
23 | CC1(C(=O)Nc2cc(-c3c[nH]c4nccc(Oc5ccc6c(c5)CNCC6)c34)ccn2)CC1 [Example 44, 1-methyl-N-(4-(4-((1,2,3,4-tetrahydroisoquinolin-7-yl)oxy)-1H-pyrrolo[2,3-b]pyridin-3-yl)pyridin-2-yl)cyclopropanecarboxamide] | 3 to 30 nM | < 3 nM
24 | CC1(C)CCN(C(=O)Nc2cc(-c3c[nH]c4nccc(Oc5ccc6c(c5)CNCC6)c34)ccn2)CC1 [Example 46, 4,4-dimethyl-N-(4-(4-((1,2,3,4-tetrahydroisoquinolin-7-yl)oxy)-1H-pyrrolo[2,3-b]pyridin-3-yl)pyridin-2-yl)piperidine-1-carboxamide] | 3 to 30 nM | < 3 nM
25 | CN(C(=O)Nc1cc(-c2c[nH]c3nccc(Oc4ccc5c(c4)CNCC5)c23)ccn1)C1CCCCC1 [Example 47, 1-cyclohexyl-1-methyl-3-(4-(4-((1,2,3,4-tetrahydroisoquinolin-7-yl)oxy)-1H-pyrrolo[2,3-b]pyridin-3-yl)pyridin-2-yl)urea] | < 3 nM | < 3 nM
26 | CN(C(=O)Nc1cc(-c2c[nH]c3nccc(Oc4ccc5c(c4)CNCC5)c23)ccn1)C1CCOCC1 [Example 48, 1-methyl-1-(tetrahydro-2H-pyran-4-yl)-3-(4-(4-((1,2,3,4-tetrahydroisoquinolin-7-yl)oxy)-1H-pyrrolo[2,3-b]pyridin-3-yl)pyridin-2-yl)urea] | 3 to 30 nM | < 3 nM
27 | c1ccc(CNc2cc(-c3c[nH]c4nccc(Oc5cnc6c(c5)CNCC6)c34)ccn2)cc1 [Example 49, N-benzyl-4-(4-((5,6,7,8-tetrahydro-1,6-naphthyridin-3-yl)oxy)-1H-pyrrolo[2,3-b]pyridin-3-yl)pyridin-2-amine] | > 30 nM | > 30 nM
